Consider 32 compounds from US20190142810A1, “MITOCHONDRIAL INHIBITORS FOR THE TREATMENT OF PROLIFERATION DISORDERS” (Basilea Pharmaceutica International AG, priority 2016, published 2019).

For one assay, the system named is HeLa galactose cells. Put plainly: Cell growth and proliferation assay of HeLa galactose cells (crystal violet). The class given is cell-based. To be noted: Homo sapiens, HeLa, 72 h, 72 hours incubation, crystal violet staining, absorbance at 590 nm. Here is the method: The cervical tumor cell line HeLa (ATCC, CCL-2) was cultivated in DMEM medium (Invitrogen cat. no. 11971, 4.5 g/L high glucose) containing 10% fetal calf serum (Sigma cat. no. F9665) and 1% Penicillin/Streptomycin (Sigma cat. no. P0781) at 37° C. in 5% CO2. HeLa galactose cells (i.e. HeLa cells that grow in high concentrations of galactose) were generated from HeLa glucose cells (i.e. HeLa cells that grow in high concentrations of glucose) by gradually changing the amount of glucose in the media to zero glucose in the presence of galactose as a sugar source (50% galactose/50% glucose media for one week, then 75% galactose/25% glucose media for one week, to 100% galactose media in the third week). Galactose media (Invitrogen cat. no. 11966) was supplemented with 10 mM galactose (Sigma cat. no. G5388).
Cell Growth and Proliferation Assay of HeLa Galactose and Glucose Cells
HeLa galactose cells and HeLa glucose cells were seeded in 96 well plates (TPP, cat. no 92696) at 2000 and 1500 cells/well, respectively, in 100 μL of complete medium. After overnight incubation the cells were incubated for 72 hours in complete medium containing 0.001% DMSO or compounds (final concentration of DMSO 0.001%). After the medium was removed, cells were fixed and stained by adding 50 μL crystal violet staining (0.2% crystal violet (Sigma-Aldrich cat. no. C0775) in 50% methanol) per well. The plates were incubated for 1 hour at room temperature. Subsequently the stain was decanted and plates were washed 4 times with de-mineralized water. Plates were air-dried for 2 hours. The stain was dissolved by adding 100 μL buffer (0.1 M Tris pH 7.5, 0.2% SDS, 20% ethanol) per well and shaking the plates. Absorbance at 590 nm was measured using a SpectraMax® 250 plate reader (Molecular Devices). Antiproliferative/growth inhibition IC50s were calculated from concentration-response curves using GraphPad Prism software.

Assay [1] concerns Oxygen consumption (mitochondrial function). Put plainly: Oxygen consumption assay (MitoXpress probe). Format: cell-based. Conditions: 5 h, MitoXpress probe signal, kinetic analysis at 37° C. for 5 hours, compared to untreated cells. The source says:
Oxygen consumption is one of the most informative and direct measures of mitochondrial function and can be measured, for example, by using the MitoXpress® assay (Luxcel MX-2001, Luxcel Biosciences). The MitoXpress® probe is one of a family of phosphorescent oxygen sensitive probes. The assay exploits the ability of oxygen to quench the excited state of the MitoXpress® probe. As the test material respires (i.e. the cells), oxygen is depleted in the surrounding solution/environment, which increases the probe phosphorescence signal. Changes in oxygen consumption reflecting changes in mitochondrial activity are seen as changes in the MitoXpress® probe signal over time.
Cells were seeded in 96 well black plates with transparent bottoms (Greiner Bio-One cat. no. 655090) at a density of 50′000 cells/well in a final volume of 100 μL. After 24 hours the incubation media was removed and 150 μL of fresh media containing inhibitors at different concentrations was added to each well. Then, 10 μL of MitoXpress® and 150 μL mineral oil were added per well. Reading from the top of the plate, kinetic analysis was performed at 37° C. for 5 hours using a Synergy 4 plate reader (BioTek) and Time-resolved Fluoresence (TRF) wavelengths of 380/11 nm excitation and 650/20 nm emission or 665/40 emission (30 microsecond delay time, 100 microsecond integration time, gain or sensitivity settings set at either medium or high). IC50s were calculated as the concentration that inhibits 50% of the phosphorescent oxygen sensitive probe signal (MitoXpress®) as compared to untreated cells.

Take `COc1ccc(C=C2CCCN(C(=O)Nc3nc(C)ns3)CC2)c(F)c1` [Example 103]: the IC50 (in general, the midpoint of a concentration-inhibition curve) with HeLa galactose cells turned out to be 71 nM; in assay [1] it was 156 nM.
The corresponding values for `Cc1nsc(NC(=O)N2CCC(=Cc3ccc(OC(F)(F)F)cc3)CC2)n1` [Example 52] are 271 nM and 477 nM.
As to `Cc1nsc(NC(=O)N2CC/C(=C\c3ccc(Cl)cc3F)C(C)C2)n1` (stereo not shown) [Example 82, (4E)-4-[(4-chloro-2-fluoro-phenyl)methylene]-3-methyl-N-(3-methyl-1,2,4-thiadiazol-5-yl)piperidine-1-carboxamide], the IC50 in the assay on HeLa galactose cells was determined as 31 nM; in assay [1] it was 78 nM.
For `Cc1cc(NC(=O)N2CCC(=Cc3c(F)cc(C(F)(F)F)cc3F)CC2)ccn1` [Example 138, 4-[[2,6-difluoro-4-(trifluoromethyl)phenyl]methylene]-N-(2-methyl-4-pyridyl)piperidine-1-carboxamide] the same measures were 21 nM and 147 nM.
The corresponding values for `Cc1nsc(NC(=O)N2CCCC(Cc3c(F)cc(Cl)cc3F)CC2)n1` (stereo not shown) [Example 127, 4-[(4-chloro-2,6-difluoro-phenyl)methyl]-N-(3-methyl-1,2,4-thiadiazol-5-yl)azepane-1-carboxamide] are 15 nM and 35 nM.
The corresponding values for `O=C(Nc1ccnc(C2CC2)c1)N1CCC(=Cc2ccc(Cl)cc2F)CC1` [Example 183, 4-[(4-chloro-2-fluoro-phenyl)methylene]-N-(2-cyclopropyl-4-pyridyl)piperidine-1-carboxamide] are 21 nM and 42 nM.
Regarding `Cc1nsc(NC(=O)N2CCC(C(=O)c3ccc(F)cc3F)CC2)n1` [Example 75, 4-(2,4-difluorobenzoyl)-N-(3-methyl-1,2,4-thiadiazol-5-yl)piperidine-1-carboxamide], the IC50 was 54 nM with HeLa galactose cells and 59 nM in assay [1].
For `Cc1cc(NC(=O)N2CCC(Cc3c(F)cc(C(F)(F)F)cc3F)CC2)ccn1` [Example 139] the same measures were 22 nM and 152 nM.
As for `Cc1cc(NC(=O)N2CCC(C(=O)c3c(F)cc(C(F)(F)F)cc3F)CC2)ccn1` [Example 173], the half-inhibitory concentration (IC50) with HeLa galactose cells came to 54 nM; in assay [1], 136 nM.
For `Cc1nsc(NC(=O)N2CCC(=Cc3ccc(N(C)CCO)cc3F)CC2)n1` [Example 110] the same measures were 66 nM and 151 nM.
The corresponding values for `Cc1nsc(NC(=O)N2CCC(Cc3c(F)cc(O)cc3F)CC2)n1` [Example 100] are 200 nM and 402 nM.
For `Cc1nsc(NC(=O)N2CCC(Cc3c(F)cc(Cl)cc3F)CC2)n1` [Example 25, 4-[(4-chloro-2,6-difluoro-phenyl)methyl]-N-(3-methyl-1,2,4-thiadiazol-5-yl)piperidine-1-carboxamide] the same measures were 18 nM and 55 nM.
With `Cc1nsc(NC(=O)N2CC/C(=C/c3ccc(Cl)cc3F)CC2C(C)C)n1` (stereo not shown) [Example 87], the results for the half-inhibitory concentration (IC50) (in the assay with HeLa galactose cells; in assay [1]) were 262 nM and 335 nM, respectively.
For `Cc1nsc(NC(=O)N2CCCC(=Cc3ccc(C(F)(F)F)cc3F)CC2)n1` [Example 116] the same measures were 54 nM and 150 nM.
The corresponding values for `Cc1nsc(NC(=O)N2CCC(Cc3ccc(-c4noc(C)n4)cc3F)CC2)n1` [Example 35, 4-[[2-fluoro-4-(5-methyl-1,2,4-oxadiazol-3-yl)phenyl]methyl]-N-(3-methyl-1,2,4-thiadiazol-5-yl)piperidine-1-carboxamide] are 240 nM and 473 nM.
For `CCc1nsc(NC(=O)N2CCC(Cc3ccc(Cl)cc3F)CC2)n1` [Example 70, 4-[(4-chloro-2-fluoro-phenyl)methyl]-N-(3-ethyl-1,2,4-thiadiazol-5-yl)piperidine-1-carboxamide] the same measures were 30 nM and 65 nM.
For `Cc1nsc(NC(=O)N2CCC(=Cc3ccc(F)cc3F)CC2)n1` [Example 59, 4-[(2,4-difluorophenyl)methylene]-N-(3-methyl-1,2,4-thiadiazol-5-yl)piperidine-1-carboxamide], the IC50 is 41 nM in the assay with HeLa galactose cells and 43 nM in assay [1].
Regarding `COc1ccc(C(=O)C2CCN(C(=O)Nc3nc(C)ns3)CC2)cc1` [Example 76], the IC50 in the assay on HeLa galactose cells came out at 190 nM; in assay [1], 332 nM.
For `Cc1nsc(NC(=O)N2CCC(C(=O)c3ccc(Cl)cc3F)CC2)n1` [Example 92, 4-(4-chloro-2-fluoro-benzoyl)-N-(3-methyl-1,2,4-thiadiazol-5-yl)piperidine-1-carboxamide] the same measures were 57 nM and 62 nM.
For `Cc1nsc(NC(=O)N2CCC/C(=C/c3ccc(Cl)cc3F)CC2)n1` [Example 118, (4Z)-4-[(4-chloro-2-fluoro-phenyl)methylene]-N-(3-methyl-1,2,4-thiadiazol-5-yl)azepane-1-carboxamide] the same measures were 43 nM and 70 nM.
For `Cc1nsc(NC(=O)N2CCC(Cc3c(F)cc(C#N)cc3F)CC2)n1` [Example 129, 4-[(4-cyano-2,6-difluoro-phenyl)methyl]-N-(3-methyl-1,2,4-thiadiazol-5-yl)piperidine-1-carboxamide] the same measures were 16 nM and 20 nM.
For the compound `Cc1nsc(NC(=O)N2CCC(=Cc3ccc(NCCN)cc3F)CC2)n1` [Example 101, 4-[[4-(2-aminoethylamino)-2-fluoro-phenyl]methylene]-N-(3-methyl-1,2,4-thiadiazol-5-yl)piperidine-1-carboxamide], the figures for the IC50 (with HeLa galactose cells; in assay [1]) were 251 nM and 412 nM, respectively.
For `COCc1cc(NC(=O)N2CCC(=Cc3ccc(Cl)cc3F)CC2)ccn1` [Example 176] the same measures were 54 nM and 133 nM.
For `Cc1nsc(NC(=O)N2CCC(=Cc3c(F)cc(N(C)C4CCOC4)cc3F)CC2)n1` (stereo not shown) [Example 157], the values for the IC50 (in the assay on HeLa galactose cells; in assay [1]) were 51 nM and 109 nM, respectively.
The corresponding values for `O=C(Nc1nc(CCN2CCOCC2)ns1)N1CCC(=Cc2ccc(Cl)cc2F)CC1` [Example 79, 4-[(4-chloro-2-fluoro-phenyl)methylene]-N-[3-(2-morpholinoethyl)-1,2,4-thiadiazol-5-yl]piperidine-1-carboxamide] are 279 nM and 378 nM.
For `Cc1nsc(NC(=O)N2CCC(Cc3ccc(C#N)cc3F)CC2)n1` [Example 32] the same measures were 43 nM and 116 nM.
The corresponding values for `COc1cc(CC2CCN(C(=O)Nc3nc(C)ns3)CC2)c(F)cc1Cl` [Example 65] are 50 nM and 126 nM.
In the case of `O=C(Nc1nc(CCO)ns1)N1CCC(Cc2ccc(Cl)cc2F)CC1` [Example 96], the IC50 in the assay on HeLa galactose cells stood at 208 nM; in assay [1], 361 nM.
The corresponding values for `Cc1nsc(NC(=O)N2CCC(=Cc3ccc(OC(F)(F)F)cc3F)CC2)n1` [Example 54] are 186 nM and 235 nM.
Regarding `Cc1nsc(NC(=O)N2CCC/C(=C/c3c(F)cc(N(C)C)cc3F)CC2)n1` [Example 115, (4Z)-4-[[4-(dimethylamino)-2,6-difluoro-phenyl]methylene]-N-(3-methyl-1,2,4-thiadiazol-5-yl)azepane-1-carboxamide], the results for the concentration for half-maximal inhibition (IC50) (with HeLa galactose cells; in assay [1]) were 29 nM and 79 nM, respectively.
For `Cc1nsc(NC(=O)N2CCC(Cc3ccc(C(C)C)cc3)CC2)n1` [Example 16] the same measures were 260 nM and 326 nM.
The corresponding values for `CNc1ccc(C=C2CCN(C(=O)Nc3nc(C)ns3)CC2)c(F)c1` [Example 109] are 55 nM and 103 nM.
